Entries after “also recorded” stand apart in the source; their conditions may differ.
Legend:
Male BalbC/J mice = test: Forced swim test (FST), immobility time; format: in vivo; conditions: for Immobility time in the rodent forced swim test, Mean: 6-min test, IP 30 min prior, DCS 300 mg/kg, mirtazapine or isomer 5 mg/kg, alone or combined; for FST additional beneficial effects in combination with DCS / FST effect of combined antidepressant and DCS vs either agent alone / DCS alone: agent (dose) + DCS 300 mg/kg IP, FIG. 2; for Effect on immobility in the forced swim test vs control: DCS alone
mice [1] = test: Marble burying test; format: in vivo; conditions: for Marble burying effect relative to racemic mirtazapine: 1-10 mg/kg IP
Description: Distance traveled during the test was captured by cameras and quantified using Video Tracker Software (ViewPoint Life Sciences Software, France). At the end of the test mice were removed from the cages and the number of unburied marbles was counted. A marble was considered buried if it was covered at least two thirds with bedding. An effect was considered significant if p<0.05.
from the cages and the number of unburied marbles was counted. A marble was considered buried if it was covered at least two thirds with bedding.
The following compounds were used. […] This compound was dissolved in 20% cyclodextrin and administered IP 30 min prior to test at a dose volume of 10 ml/kg. • Combination DSC (300 mg/kg)+Mirtazapine ([…]) was administered IP as a cocktail in a single injection 30 minutes prior to test at a dose volume of 10 ml/kg.
Mirtazapine is a racemic mix of separate R(−) and S(+) isomers. A follow-up study evaluated the relative effects of the two isomers independently. Methods are the same as for Example 3.

rodent = conditions: Freynhagen et al.; cited from earlier work
[2] = tested on: symptoms of major depression; conditions: 250 mg/day; cited from earlier work
Male C57BL/6J mice = test: Open field test, locomotor activity; conditions: vs vehicle
NMDAR = molecular target: T1, NMDAR (Homo sapiens, UniProt Q05586); conditions: in vivo; cited from earlier work
T1 construct: from tissue; host or cells: endogenous receptors of the treated subject (brain), in vivo

[3] = cited from earlier work
[4] = Pharmacokinetics of D-cycloserine in rodents (plasma level, UPLC/MS/MS); format: in vivo; conditions: mice
Description: For this study, male C57BL/6J mice (8 weeks old) from Jackson Laboratories (Bar Harbor, Me.) were used.
For each treatment group a total of 12 mice were dosed: 4 mice were collected at 30, 60 and 120 min. Mean plasma level was computed over the 30-60 min time period.

[5] = Pharmacokinetics of D-cycloserine in humans (literature)
mice [6] = conditions: mice (Carlsson et al.); cited from earlier work
[7] = FIG. 3, IP 30 min prior, paroxetine 5, mirtazapine 5.5, D-cycloserine 30 and 300 mg/kg, combination 300 + 5.5 mg/kg
[8] = FIG. 4, IP, paroxetine 5, mirtazapine and S-mirtazapine 1, 2.5, 5, 10, R-mirtazapine 10 mg/kg
[9] = humans, 250 mg PO every 12 hrs (Park et al.)
[10] = humans, 500 mg, fasting (Zhu et al.)
[11] = patients, mean dose 8.8 mg/kg, mostly 500 mg/day (Hung et al.)
[12] = 500 mg, corresponding to AUC over 24 hr (Zhu et al.)

CN1CCN2c3ncccc3Cc3ccccc3C2C1 (racemic) [mirtazapine]
Immobility time in the rodent forced swim test, Mean (Male BalbC/J mice): 92.30 s
FST additional beneficial effects in combination with DCS (Male BalbC/J mice): addition beneficial effects
Number of marbles buried compared to vehicle (mice [1]; [7]): significantly reduced
Number of marbles buried compared to vehicle (mice [1]; [8]): significantly reduced
Effect in a rodent nociception assay (rodent): biphasic effects

N[C@@H]1CON=C1O [DCS, 3-Isoxazolidinone, 4-amino-, (4R)-(9CI)]
Effect on symptoms of major depression [2]: without significant effect
Mean distance travelled over 30 min (locomotor activity) (Male C57BL/6J mice; DCS 30 mg/kg IP): 4432.1
Mean distance travelled over 30 min (locomotor activity) (Male C57BL/6J mice; DCS 30 mg/kg IP, listed as D-cycloserine): not significantly affected
Mean distance travelled over 30 min (locomotor activity) (Male C57BL/6J mice; DCS 300 mg/kg IP): 7588.5
Mean distance travelled over 30 min (locomotor activity) (Male C57BL/6J mice; DCS 300 mg/kg IP, listed as D-cycloserine): significantly increased
Mean distance travelled over 30 min (locomotor activity) (Male C57BL/6J mice; DCS 1000 mg/kg IP): 9049.8
Mean distance travelled over 30 min (locomotor activity) (Male C57BL/6J mice; DCS 1000 mg/kg IP, listed as D-cycloserine): significantly increased
Plasma concentrations associated with antagonist effects (NMDAR): > 25 µg/mL
Plasma concentrations associated with primarily agonist effects (NMDAR): < 10 µg/mL
Plasma levels with increased liability for toxicity (NMDAR): > 35000 ng/mL
Mean AUC over 12 hrs [3, 9]: 242.3 µg·h/mL
Mean Cmax [3, 9]: 24.9 microgram/mL
AUC over 24 hr, range [3, 10]: 163-352 microgram-hr/mL
Cmax, range [3, 10]: 12.1-30.6 microgram/mL
Median AUC over 24 hr [3, 10]: 214 microgram-hr/mL
Median Cmax [3, 10]: 14.8 microgram/mL
Sustained plasma level following 500 mg administration ([3]; humans, summary of PK studies): below 25 microgram/mL
DCS concentration at 2 hr after dosing [3, 11]: 19.7 microgram/mL
DCS concentration at 6 hr after dosing [3, 11]: 18.1 microgram/mL
Mean plasma levels over 30-60 min ([4]; D-cycloserine 30 mg/kg IP): below 25 microgram/mL
Mean plasma levels over 30-60 min ([4]; D-cycloserine 30 mg/kg IP, listed as D-cycloserine): 24.89 microgram/mL
Mean plasma levels over 30-60 min ([4]; D-cycloserine 100 mg/kg IP): 74.92 microgram/mL
Mean plasma levels over 30-60 min ([4]; D-cycloserine 500 mg/kg IP): 375.44 microgram/mL
Mean plasma levels over 30-60 min ([4]; D-cycloserine 1000 mg/kg IP): 510.73 microgram/mL
MTD ([4]; male, C57BL/6J, mouse, in vivo, IP, read-out: Maximum tolerated dose): 500 to 1000 mg/kg
Maximum tolerated blood level ([4]; suggested from maximum tolerated dose): approximately 500 ug/mL
Immobility time in the rodent forced swim test, Mean (Male BalbC/J mice): 42.08 s
Effect on immobility in the forced swim test vs control (Male BalbC/J mice; 30 mg/kg (FIG. 1, PO)): no significant effect
Effect on immobility in the forced swim test vs control (Male BalbC/J mice; doses of 100 mg/kg or above (FIG. 1, PO)): statistically significant (p<0.001) reduction
Mean plasma level ([5]; 250 mg PO every 12 hrs, corresponding to AUC over 12 hrs (Park et al.)): 20.2 microgram/mL
Median sustained plasma level [5, 12]: 8.9 microgram/mL
Sustained plasma level, range [5, 12]: 6.8-14.7 microgram/mL
Number of marbles buried compared to vehicle (mice [1]; [7]): did not affect
Effect on locomotor stimulation by a low dose of MK-801 (mice [6]): potentiated

Fc1ccc([C@@H]2CCNC[C@H]2COc2ccc3c(c2)OCO3)cc1 [Paroxetine]
Number of marbles buried compared to vehicle (mice [1]; [7]): significantly reduced
Number of marbles buried compared to vehicle (mice [1]; [8]): significantly reduced

CN1CCN2c3ncccc3Cc3ccccc3[C@@H]2C1 [R-mirtazapine, R(−)mirtazapine]
FST reduction in immobility, R- vs racemic mirtazapine (Male BalbC/J mice; 5 mg/kg, in absence and presence of DCS, not statistically different): numerically greater
Immobility time in the rodent forced swim test, Mean (Male BalbC/J mice): 68.40 s
Marble burying effect relative to racemic mirtazapine (mice [1]; FIG. 4): less robust
Number of marbles buried compared to vehicle (mice [1]; [8]): significantly reduced
Number of marbles buried compared to vehicle (mice [1]; FIG. 4, R-mirtazapine 1, 2.5 and 5 mg/kg IP): did not affect
Relative effects of R- and S-isomers of mirtazapine on marble burying (FIG. 4 legend) (mice [1]; FIG. 4 legend): greater effects of R- vs S-isomer
Effect in a rodent nociception assay (rodent): only anti-nociceptive effects

CN1CCN2c3ncccc3Cc3ccccc3[C@H]2C1 [S-mirtazapine, S(+)mirtazapine]
Immobility time in the rodent forced swim test, Mean (Male BalbC/J mice): 117.60 s
Marble burying effect relative to racemic mirtazapine (mice [1]; FIG. 4): significantly more robust
Number of marbles buried compared to vehicle (mice [1]; [8]): significantly reduced
Number of marbles buried, combination with DSC 300 mg/kg vs agent 2.5 mg/kg alone (mice [1]; IP 30 min prior): floor level effects
Effect in a rodent nociception assay (rodent): pro-nociceptive effects

CC(NC(C)(C)C)C(=O)c1cccc(Cl)c1 (centres unmarked) [bupropion]
FST additional beneficial effects in combination with DCS (Male BalbC/J mice): addition beneficial effects
FST effect of combined antidepressant and DCS vs either agent alone / DCS alone (Male BalbC/J mice): significantly larger than with either agent alone; also recorded: effects greater than DCS alone

CNCC[C@H](Oc1cccc2ccccc12)c1cccs1 [duloxetine]
FST additional beneficial effects in combination with DCS (Male BalbC/J mice): addition beneficial effects
FST effect of combined antidepressant and DCS vs either agent alone / DCS alone (Male BalbC/J mice): significantly larger than with either agent alone; also recorded: effects greater than DCS alone

CNCCC(Oc1ccc(C(F)(F)F)cc1)c1ccccc1 (centres unmarked) [fluoxetine]
FST additional beneficial effects in combination with DCS (Male BalbC/J mice): addition beneficial effects

CN[C@H]1CC[C@@H](c2ccc(Cl)c(Cl)c2)c2ccccc21 [sertraline]
FST additional beneficial effects in combination with DCS (Male BalbC/J mice): addition beneficial effects
FST effect of combined antidepressant and DCS vs either agent alone / DCS alone (Male BalbC/J mice): significantly larger than with either agent alone; also recorded: effects greater than DCS alone

COc1ccc(C(CN(C)C)C2(O)CCCCC2)cc1 (centres unmarked) [venlafaxine]
FST additional beneficial effects in combination with DCS (Male BalbC/J mice): addition beneficial effects

Cc1ccc(Sc2ccccc2N2CCNCC2)c(C)c1 [vortioxetine]
FST additional beneficial effects in combination with DCS (Male BalbC/J mice): addition beneficial effects

From patent US20220143041A1, “COMBINED THERAPY FOR NMDAR ANTAGONIST-RESPONSIVE NEUROPSYCHIATRIC DISORDERS” (Glytech LLC, priority 2017, published 2022)
